{"source": "paper PMC11530130", "about": "“Peripherally restricted PICK1 inhibitor mPD5 ameliorates pain behaviors in murine inflammatory and neuropathic pain models” (JCI Insight, 2024)", "key": {"PICK1": {"biological_target": "PICK1 (Rattus norvegicus, UniProt Q9EP80)", "sequence (Q9EP80 whole entry)": "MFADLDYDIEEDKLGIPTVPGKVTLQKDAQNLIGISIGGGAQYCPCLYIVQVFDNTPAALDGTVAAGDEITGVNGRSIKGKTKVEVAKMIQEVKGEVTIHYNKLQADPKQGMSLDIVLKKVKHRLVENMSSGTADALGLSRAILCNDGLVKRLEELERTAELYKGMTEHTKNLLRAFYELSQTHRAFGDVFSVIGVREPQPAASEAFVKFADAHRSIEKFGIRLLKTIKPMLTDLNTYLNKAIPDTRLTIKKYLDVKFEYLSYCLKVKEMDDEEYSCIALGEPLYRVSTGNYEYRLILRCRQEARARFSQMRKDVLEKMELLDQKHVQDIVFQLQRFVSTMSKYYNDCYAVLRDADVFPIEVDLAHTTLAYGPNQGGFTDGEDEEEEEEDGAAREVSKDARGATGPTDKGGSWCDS", "assay": "Fluorescence polarization competition binding", "set-up": "Full length rat PICK1 (pET41) was, as described earlier (1), expressed in BL21-DE3-pLysS; made in house; host or cells: E. coli BL21-DE3-pLysS", "procedure": "(§1) SUPPORTING INFORMATION: Method Section.\n(§2) Sex as a biological variable.\n(§3) All peptides were ordered from WuXI AppTec (Shanghai, China) or TAG-Copenhagen […]\n(§4) Protein expression and purification.\n(§5) Full length rat PICK1 (pET41) was, as described earlier (1), expressed in BL21-DE3-pLysS and grown at 37 °C, induced at OD600= 0.6 with 1 mM IPTG, and grown for 16 hours at 20 °C.\nCultures were harvested and re-suspended in 50 mM Tris, 125 mM NaCl, 2 mM DTT (Sigma), 1% Triton X-100 (Sigma), 20 µg/mL DNAse 1 and half a tablet of cOmplete protease inhibitor cocktail (Roche) pr. 1 L culture. The resuspended pellets were frozen at -80 °C for later purification. The lysate was cleared by centrifugation (36,000 x g for 30 min at 4 °C), and the supernatant was incubated with Glutathione-Sepharose 4B beads (GE Healthcare) for two hours at 4 °C under gentle rotation and then centrifuged at 4000 x g for 5 min. The supernatant was removed, and the beads were washed twice in 35 mL 50 mM Tris, 125 mM NaCl, 2 mM DTT, and 0.01% Triton-X100. The beads were transferred to PD-10 Bio-Spin® Chromatography columns (Bio-Rad) and washed with an additional 3 column volumes. Each column was sealed and 0.075 U/µL, Novagen® was added for cleavage O/N at 4 °C under gentle rotation. PICK1 was eluted on ice and concentration was measured on a NanoDrop 3000.\nFluorescence polarization binding.\nThe competition binding assay was carried out using a fixed concentration of PICK1 (0.5 µM) […]\nbinding surface 96 well plates (Sigma-Aldrich, Ref. no. 3686). The plates were incubated 20 min on ice and the fluorescence polarization was measured on an Omega POLARstar plate reader (BMG LABTECH) using excitation filter of 485 nm and long pass emission filter of 520 nm. The data was plotted and fitted to a competitive binding One Site fit using GraphPad […]\nSuperdex200 Increase 10/300."}, "[1]": {"assay": "Solubility in PBS by visual inspection", "procedure": "as §1, §2, §3\nAssessment of solubility and stability of mPD5.\nSolubility was determined by visual inspection of samples dissolved in increasing concentration in 10 mM PBS as judged by full transparency and monophasic appearance.\nStability was addressed by […] for four concentrations (2, 20, 50, and 200 µM), by leaving mPD5 in PBS at 5 °C and 25 °C for 30 days followed by HPLC-UV-MS.\nas §4, §5\nCultures were harvested and re-suspended in 50 mM Tris, 125 mM NaCl, 2 mM DTT (Sigma), 1% Triton X-100 (Sigma), 20 µg/mL DNAse 1 and half a tablet of cOmplete protease inhibitor cocktail (Roche) pr. 1 L culture. The resuspended pellets were frozen at -80 °C for later purification. […] PICK1 was eluted on ice and concentration was measured on a NanoDrop 3000.\nFluorescence polarization binding. […]\nbinding surface 96 well plates (Sigma-Aldrich, Ref. no. 3686). The plates were incubated 20 min on ice and the fluorescence polarization was measured on an Omega POLARstar plate reader (BMG LABTECH) using excitation filter of 485 nm and long pass emission filter of 520 nm. […]"}}, "note": "Several values for one entry are separate records, joined by “and”; a condition that tells them apart may be missing. Equal values may be shown once.", "data": [{"smiles": "CCCCCCCCCCCCCC(=O)N(CCOCCOCCC(=O)N[C@@H](Cc1c[nH]cn1)C(=O)N[C@@H](Cc1c[nH]c2ccccc12)C(=O)N[C@@H](CC(C)C)C(=O)N[C@@H](CCCCN)C(=O)N[C@H](C(=O)O)C(C)C)CCOCCOCCC(=O)N[C@@H](Cc1c[nH]cn1)C(=O)N[C@@H](Cc1c[nH]c2ccccc12)C(=O)N[C@@H](CC(C)C)C(=O)N[C@@H](CCCCN)C(=O)N[C@H](C(=O)O)C(C)C", "note": "[mPD5, myristoyl-NPEG4-(HWLKV)2]", "values": [{"measurement": "Ki", "setting": "PICK1", "value": 3, "unit": "nM"}, {"measurement": "affinity gain compared with D5 (HWLKV) alone", "setting": "PICK1; from Ki,app", "value": "approximately 1000 fold"}, {"measurement": "affinity gain compared with PD5", "setting": "PICK1; from Ki,app", "value": 30, "unit": "fold"}, {"measurement": "solubility", "setting": "[1]", "value": "≥ 250000 µg/mL and ~130000 µM"}]}]}
